Like-named read-outs stand apart in the source and are kept apart here.
Legend:
a-2A adrenoceptor = biological target: T1, a-2A adrenoceptor (Homo sapiens, UniProt P08913); experiment: a-2 adrenoceptor binding assay, [3H] RX821002 competition; conditions: human recombinant CHO cells, [3H] RX821002 (1 nM)
T1 construct: expressed in transfected cells; host or cells: CHO cells
T1 sequence (P08913 1-465): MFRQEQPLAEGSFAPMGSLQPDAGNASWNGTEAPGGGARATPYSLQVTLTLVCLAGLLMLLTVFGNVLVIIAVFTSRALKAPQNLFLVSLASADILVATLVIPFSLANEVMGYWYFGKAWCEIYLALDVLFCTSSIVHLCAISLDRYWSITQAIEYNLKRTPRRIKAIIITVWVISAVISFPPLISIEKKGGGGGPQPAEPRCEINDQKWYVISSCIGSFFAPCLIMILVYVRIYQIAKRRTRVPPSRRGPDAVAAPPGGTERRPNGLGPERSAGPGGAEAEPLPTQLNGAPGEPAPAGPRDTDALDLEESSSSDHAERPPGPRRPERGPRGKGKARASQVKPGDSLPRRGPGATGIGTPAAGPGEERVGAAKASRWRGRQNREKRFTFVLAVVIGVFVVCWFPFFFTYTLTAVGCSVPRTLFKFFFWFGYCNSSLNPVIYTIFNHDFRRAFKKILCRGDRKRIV
Text: The activation of this receptor is responsible for its intended therapeutic effect. […] The binding assay methodology employed in this study followed that described by […] et al. (Eur. J. Pharmacol. 167:95-104, 1989) and used human recombinant CHO cells expressing a-2 adrenceptors. The competitive binding ligand was [3H]

[1] = Comparative bioavailability study of guanfacine in monkeys given guanfacine or guanfacine prodrug; assay type: in vivo, monkey
Method: Blood samples were taken at various times after administration and submitted to analysis for the parent drug and prodrug using a qualified LC-MS-MS assay. The following pharmacokinetic parameters derived from the plasma analytical data were determined using Win Nonlin;

[2] = Microdose comparative bioavailability study in healthy adult subjects; assay type: in vivo; conditions: both sexes, plasma, healthy human volunteers, oral, 100 µg free base
Method: Blood samples were withdrawn pre-dose and at 0.5, 1, 2, 3, 4, 5, 6, 8, 12, 16, 24, 32, and 48 hours post dose and submitted to analysis for the parent drug and prodrug using a validated LC-MS-MS assay. The following pharmacokinetic parameters derived from the plasma analytical data were determined;

rat GIT transit = experiment: Charcoal propulsion test (gut motility) in rat; assay type: in vivo; conditions: oral, 60 min before charcoal
Method: The effect of a drug on gut motility can be studied by means of the charcoal propulsion test.
The method used was based on that described by Takemori et al. (J. Pharmacol. Exp. Ther. 169:39, 1969). Test treatments were administered orally 60 minutes prior to an oral dose of a 10% suspension of charcoal in 2.5% gum Arabic (2 ml/kg). Twenty minutes after dosing with charcoal, the rats were sacrificed and the entire gastrointestinal tract was removed quickly and carefully. The distance that the charcoal meal had traveled toward the caecum was measured and expressed as a percentage of the total gut length.

Solubility = conditions: Solubility
[3] = Pharmacokinetics of guanfacine and prodrug in rat hepatic portal and tail veins after oral prodrug; assay type: in vivo; conditions: 1 mg/kg
Text: The collection of blood from the hepatic portal vein following oral administration allows the analysis of absorbed prodrug and active drug levels prior to first pass metabolism in the liver. Systemic levels can be measured by sampling of blood from the tail vein. Rats were surgically prepared under isofluorane anaesthesia by attaching a silicon catheter to the portal vein then exteriorising it at the nape of the neck with a blood collection port attached. Oral doses of compound 3 were administered by gavage as a single bolus dose at a dose volume of 10 mL/kg. At each sampling time serial point blood samples (approximately 0.2 mL) were taken simultaneously from the lateral tail vein cannula and the hepatic portal cannula. After collection of the final blood sample each animal was killed by cervical dislocation. […] Pharmacokinetic parameters in portal and systemic plasma were derived by non-compartmental analysis (linear/logarithmic trapezoidal) using WinNonlin (Version 4.1) software.

Ki (a-2A adrenoceptor): > 10 µM
Cmax ([1]; monkey, plasma, po, 0.5 mg/kg): 0.93 ng/mL
Time after administration up to which systemic prodrug was detectable ([1]; monkeys, 0.5 mg/kg guanfacine free base equivalents): up to 24 hours
half-life ([2]; n = 4, read-out: t½, analyte Compound 3 (converted)): 57 ± 11.4 min
AUC(0-t) ([2]; read-out: AUC0-t, analyte Compound 3): 0.092 ± 0.043 ng·h/mL
Cmax ([2]; read-out: Cmax, analyte Compound 3): 0.089 ± 0.038 ng/mL
solubility (Solubility; DMSO, organic solvent or mixture, in DMSO): > 10000 µg/mL
solubility (Solubility; water, in water): < 1000 µg/mL
AUC ([3]; hepatic portal vein plasma, read-out: Hepatic portal vein Prodrug AUC): 397 ng·h/mL
Cmax ([3]; hepatic portal vein plasma, read-out: Hepatic portal vein Prodrug Cmax): 149 ng/mL
AUC ([3]; tail vein (systemic) plasma, read-out: Tail vein Prodrug AUC): 88.6 ng·h/mL
Cmax ([3]; tail vein (systemic) plasma, read-out: Tail vein Prodrug Cmax): 16.4 ng/mL
Structure (SMILES): CCOC(=O)NC(N)=NC(=O)Cc1c(Cl)cccc1Cl.Cl [Compound 3, {N′-[2-(2,6-Dichloro-phenyl)-acetyl]-guanidinocarbonyloxy}ethane Hydrochloride]
% inhibition of rat GIT transit (rat GIT transit; dose 00.1 mg/kg (guanfacine free base equivalents)): 15%
% inhibition of rat GIT transit (rat GIT transit; dose 00.3 mg/kg (guanfacine free base equivalents)): 56%
% inhibition of rat GIT transit (rat GIT transit; dose 100 mg/kg (guanfacine free base equivalents)): 57%

From patent US20120065152A1 (SHIRE LLC, priority 2010, published 2012)
